“Also recorded” adds a separate entry of the source. *1 amine or outer side, *2 acyl side, *3 side chain or, on linkers, in order; H or OH if unused. Where a SMILES comes first, the peptide text is derived from it. Bridges are numbered along the chain shown (N, C = ends). Roman numbers before positions name the chains, in order. Where no end group is shown, it is not given here. [ ]: non-standard residue; d: D form. Actinocin(9to1) = Cc1c2oc3c(C)ccc(C(=O)[*:1])c3nc-2c(C(=O)[*:2])c(N)c1=O; NMeV = CN[C@H](C(=O)O)C(C)C; Sar = CNCC(=O)O
Tests used:
CART receptor = details: cited from earlier work
Description: However, much earlier, a fragment of the CART peptide was identified in extracts of sheep hypothalamus.[2] CART was later found to be expressed also in pancreatic islet cells and in nerve fibers innervating the islets.[3]^,[4]^,[5] […] Since then, multiple biological effects of CART have been established.[4]^,[7] Among them is the effect of CART on islet hormone secretion fr ...

PC12 cells = system: PC12 cells; set-up: method as in PMID 21855138; details: cited from earlier work
Description: However, much earlier, a fragment of the CART peptide was identified in extracts of sheep hypothalamus.[2] CART was later found to be expressed also in pancreatic islet cells and in nerve fibers innervating the islets.[3]^,[4]^,[5] […] Among them is the effect of CART on islet hormone secretion fr ...

INS-1 832/13 cells = experiment: Radioactive binding of 125I-CARTp55-102 to INS-1 832/13 cells; set-up: species or system rat
Experimental: ^125I was incorporated into the meta-position of tyrosine side chains of CARTp55-102 using oxidative iodination. 20 μL of a 300 mM phosphate buffer (pH 7.4) was used to resuspend 1 nmol of the CARTp55-102 peptide, after which 0.4 mCi ^125I (NEZ033A, PerkinElmer, Waltham, MA) was added. A volume of 30 μL 3 mg/mL Chloramine-T in phosphate buffer was added gradually while stirring over 6 min, and the reaction was quenched by adding 400 μL H2O with 0.1% trifluoroacetic acid (TFA). The radiolabeled peptide was purified by reversed-phase HPLC on a C18 column and […]. Elution fractions of 1 mL were collected and it was determined where the radiolabeled peptide eluted by measuring γ radiation intensity on a PerkinElmer 2470 Automatic Gamma Counter (PerkinElmer).
INS-1 cells were seeded to 24-well plates and transfected with Gpr162 siRNA (or control siRNA). Two days after transfection cells were assayed for competition binding for 3 h at 4°C using 10–15 p.m. ^125I CARTp55-102 or unlabeled CARTp55-102 in 0.4 mL of 50 mM HEPES buffer (pH7.4 supplemented with 1 mM CaCl2, 5 mM MgCl2 and 0.5% (w/v) bovine serum albumin). After incubation cells were washed two times in binding buffer supplemented with 0.5 M NaCl at 4°C. Non-specific binding was determined as the binding in the presence of 0.1μM unlabeled CARTp55-102.

Gpr162 mRNA = system: Gpr162 mRNA; set-up: method as in PMID 24937127; details: streptozotocin-treated rats; cited from earlier work
KATO III cells = details: KATOIII cells; cited from earlier work
Description: When studying neuropathic pain, Yosten et al.[11] found GPR160 to be necessary for CARTp-mediated cell activation in cell culture. […] Information on GPR160 is scarce, but it has been reported to be a potential marker for prostate cancer,[24] where it is involved in apoptosis and cell-cycle arrest.[25] […] Recently, the notion of GPR160 being the ...

PACAP6-38: CART receptor antagonist (FTDSYSRYRKQMAVKKYLAAVLGKRYKQRVKNK; ends and bridges not checked; UniProt P18509 137-169, looked up, fragment)
CART receptor antagonism (CART receptor): acts as a CART receptor antagonist

C[C@@H]1C[C@@H]([C@H](O)CC2CC(=O)NC(=O)C2)C(=O)[C@@H](C)C1 [cycloheximide]
Effect on (radiolabeled) CART binding (PC12 cells): inhibited

^125I-CARTp55-102: ^125I was incorporated into the meta-position of tyrosine side chains of CARTp55-102 using oxidative iodination (IPIYEKKYGQVPMCDAGEQCAVRKGARIGKLCDCPRGTSCNSFLLKCL; ends and bridges not checked; also: 125I in meta-position of tyrosine side chains)
Binding of 125I-CARTp55-102 after Gpr162 siRNA/KD (INS-1 832/13 cells; Gpr162 KD vs negative control, 3 h at 4°C, 2 days after transfection, n = 3, p < 0.05): binds to a lower extent to Gpr162 KD INS-1 832/13 cells; also recorded: the degree of binding was lower in cells treated with Gpr162 siRNA | Binding of 125I-CARTp55-102 to cells (INS-1 832/13 cells; competition binding 3 h at 4°C, 50 mM HEPES pH7.4, non-specific with 0.1μM unlabeled CARTp55-102, n = 3): binds to INS-1 832/13 cells

CN(N=O)C(=O)N[C@H]1C(O)O[C@H](CO)[C@@H](O)[C@@H]1O (mixture of isomers) [streptozotocin]
Gpr162 mRNA expression, brain (Gpr162 mRNA): increased | Gpr162 mRNA expression, right ventricle of the heart and kidney (Gpr162 mRNA): reduced Gpr162 mRNA expression

Cc1c2oc3c(C)ccc(C(=O)N[C@@H]4C(=O)N[C@H](C(C)C)C(=O)N5CCC[C@H]5C(=O)N(C)CC(=O)N(C)[C@@H](C(C)C)C(=O)O[C@@H]4C)c3nc-2c(C(=O)N[C@@H]2C(=O)N[C@H](C(C)C)C(=O)N3CCC[C@H]3C(=O)N(C)CC(=O)N(C)[C@@H](C(C)C)C(=O)O[C@@H]2C)c(N)c1=O [actinomycin D] (I: T[dV]P[Sar][NMeV] / II: T[dV]P[Sar][NMeV]; ester I:1-I:C, II:1-II:C; linker I:N-II:N via Actinocin(9to1))
Effect on (radiolabeled) CART binding (PC12 cells): inhibited

C-peptide
Effect of GPR160 on C-peptide-induced cFOS expression (KATO III cells): GPR160 has no effect on C-peptide-induced cFOS expression

radiolabeled CART peptide: radiolabeled CART of cited earlier studies in AtT20 and PC12 cells (IPIYEKKYGQVPMCDAGEQCAVRKGARIGKLCDCPRGTSCNSFLLKCL; ends and bridges not checked; also: 125I in meta-position of tyrosine side chains)
Specific binding in PC12 cells (PC12 cells): high-affinity-specific binding in PC12 cells

pertussis toxin
CARTp-mediated phosphorylation of ERK (CART receptor): inhibited

— article PMC10709007, “GPR162 is a beta cell CART receptor” (iScience, 2023)
